Measurements published in patent US9650389B2, “8-oxoprotoberberine derivative or pharmaceutically acceptable salt thereof, preparation method therefor and pharmaceutical composition for preventing or treating diseases associated with activity of NFAT5, containing same as active ingredient” (Korea Research Institute of Chemical Technology, priority 2013, dated 2017).
Like-named read-outs stand apart in the source and are kept apart here. One block for each molecule: values may come before it.

Columns and labels:
COX1 = molecular target: T1, COX1 (Ovis aries, UniProt P05979); assay: COX inhibition, COX assay kit (Table 4); format: biochemical
T1 construct: purchased Cayman Co. 760111
T1 sequence (P05979 25-600): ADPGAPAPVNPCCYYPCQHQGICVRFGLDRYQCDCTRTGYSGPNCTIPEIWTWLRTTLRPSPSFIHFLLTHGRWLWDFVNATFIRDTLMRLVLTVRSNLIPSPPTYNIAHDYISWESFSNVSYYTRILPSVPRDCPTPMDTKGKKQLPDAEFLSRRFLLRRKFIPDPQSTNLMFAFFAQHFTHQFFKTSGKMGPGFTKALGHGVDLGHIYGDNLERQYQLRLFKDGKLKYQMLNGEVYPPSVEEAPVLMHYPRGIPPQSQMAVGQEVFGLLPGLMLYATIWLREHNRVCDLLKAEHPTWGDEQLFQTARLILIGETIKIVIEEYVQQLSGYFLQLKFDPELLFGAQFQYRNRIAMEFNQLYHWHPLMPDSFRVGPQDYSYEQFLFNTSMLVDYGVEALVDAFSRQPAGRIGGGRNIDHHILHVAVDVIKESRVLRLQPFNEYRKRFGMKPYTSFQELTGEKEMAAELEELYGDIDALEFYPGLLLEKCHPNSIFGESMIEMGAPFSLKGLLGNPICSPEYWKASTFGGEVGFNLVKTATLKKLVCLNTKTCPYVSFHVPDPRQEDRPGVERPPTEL
Description: (§1) 10 μl of substrate and 10 μl of arachidonic acid were added thereto, followed by reaction for 10 minutes in the darkness. Then, OD590 was measured.

COX2 = molecular target: T2, COX2 (Ovis aries, UniProt P79208); assay: COX inhibition, COX assay kit (Table 5); format: biochemical
T2 construct: purchased Cayman Co. 760111
T2 sequence (P79208 17-603): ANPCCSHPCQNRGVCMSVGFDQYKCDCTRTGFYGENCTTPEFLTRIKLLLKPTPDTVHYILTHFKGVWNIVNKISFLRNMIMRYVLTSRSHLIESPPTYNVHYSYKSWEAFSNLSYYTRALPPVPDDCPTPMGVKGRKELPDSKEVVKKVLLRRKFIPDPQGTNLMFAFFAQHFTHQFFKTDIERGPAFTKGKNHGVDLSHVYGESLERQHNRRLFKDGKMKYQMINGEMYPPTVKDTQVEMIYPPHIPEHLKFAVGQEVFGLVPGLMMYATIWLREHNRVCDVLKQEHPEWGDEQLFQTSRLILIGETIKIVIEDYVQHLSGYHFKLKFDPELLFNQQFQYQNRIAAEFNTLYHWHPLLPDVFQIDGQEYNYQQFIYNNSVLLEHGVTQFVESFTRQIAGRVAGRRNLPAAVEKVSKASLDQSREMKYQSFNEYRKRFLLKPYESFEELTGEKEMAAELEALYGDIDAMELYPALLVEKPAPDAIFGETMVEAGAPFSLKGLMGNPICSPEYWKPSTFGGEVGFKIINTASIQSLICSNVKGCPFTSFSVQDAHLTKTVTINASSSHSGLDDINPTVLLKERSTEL
Description: as §1

iNOS = assay: Inhibition of LPS-induced iNOS induction in Raw264.7 cells (Griess reagent); format: cell-based; conditions: Mus musculus, read-out: Inhibition rate of iNOS induction (%)
Description: To investigate whether or not the derivative of the present invention could inhibit iNOS inducement, Raw264.7 cells (mouse macrophages) were distributed in a 384-well plate at the density of 3×10^4 cells/well. The cells were treated with LPS at the concentration of 100 ng/ml, followed by culture at 37° C. for 24 hours. The concentration of […] increased in the medium was measured by using Griess reagent. The inhibition rate was calculated by mathematical formula based on the detected signals. The results are shown in Table 2. % inhibition=(mean value of sample−mean value of negative control)/(mean value of positive control −mean value of negative control)×100 [Mathematical Formula 1]

NFAT5 = molecular target: T3, NFAT5 (Mus musculus, UniProt Q9WV30); assay: NFAT5 reporter screening (GFP, HCS) in LPS-treated Raw264.7 cells; format: cell-based; conditions: for Inhibition rate of NFAT5 transcription (%): Raw264.7 reporter, LPS 1 μg/ml, 48 hours; for inhibiting NFAT5 activity (in words): Table 3 and FIG. 1
T3 construct: endogenous in cells; host or cells: RAW264.7
T3 sequence (Q9WV30 whole entry): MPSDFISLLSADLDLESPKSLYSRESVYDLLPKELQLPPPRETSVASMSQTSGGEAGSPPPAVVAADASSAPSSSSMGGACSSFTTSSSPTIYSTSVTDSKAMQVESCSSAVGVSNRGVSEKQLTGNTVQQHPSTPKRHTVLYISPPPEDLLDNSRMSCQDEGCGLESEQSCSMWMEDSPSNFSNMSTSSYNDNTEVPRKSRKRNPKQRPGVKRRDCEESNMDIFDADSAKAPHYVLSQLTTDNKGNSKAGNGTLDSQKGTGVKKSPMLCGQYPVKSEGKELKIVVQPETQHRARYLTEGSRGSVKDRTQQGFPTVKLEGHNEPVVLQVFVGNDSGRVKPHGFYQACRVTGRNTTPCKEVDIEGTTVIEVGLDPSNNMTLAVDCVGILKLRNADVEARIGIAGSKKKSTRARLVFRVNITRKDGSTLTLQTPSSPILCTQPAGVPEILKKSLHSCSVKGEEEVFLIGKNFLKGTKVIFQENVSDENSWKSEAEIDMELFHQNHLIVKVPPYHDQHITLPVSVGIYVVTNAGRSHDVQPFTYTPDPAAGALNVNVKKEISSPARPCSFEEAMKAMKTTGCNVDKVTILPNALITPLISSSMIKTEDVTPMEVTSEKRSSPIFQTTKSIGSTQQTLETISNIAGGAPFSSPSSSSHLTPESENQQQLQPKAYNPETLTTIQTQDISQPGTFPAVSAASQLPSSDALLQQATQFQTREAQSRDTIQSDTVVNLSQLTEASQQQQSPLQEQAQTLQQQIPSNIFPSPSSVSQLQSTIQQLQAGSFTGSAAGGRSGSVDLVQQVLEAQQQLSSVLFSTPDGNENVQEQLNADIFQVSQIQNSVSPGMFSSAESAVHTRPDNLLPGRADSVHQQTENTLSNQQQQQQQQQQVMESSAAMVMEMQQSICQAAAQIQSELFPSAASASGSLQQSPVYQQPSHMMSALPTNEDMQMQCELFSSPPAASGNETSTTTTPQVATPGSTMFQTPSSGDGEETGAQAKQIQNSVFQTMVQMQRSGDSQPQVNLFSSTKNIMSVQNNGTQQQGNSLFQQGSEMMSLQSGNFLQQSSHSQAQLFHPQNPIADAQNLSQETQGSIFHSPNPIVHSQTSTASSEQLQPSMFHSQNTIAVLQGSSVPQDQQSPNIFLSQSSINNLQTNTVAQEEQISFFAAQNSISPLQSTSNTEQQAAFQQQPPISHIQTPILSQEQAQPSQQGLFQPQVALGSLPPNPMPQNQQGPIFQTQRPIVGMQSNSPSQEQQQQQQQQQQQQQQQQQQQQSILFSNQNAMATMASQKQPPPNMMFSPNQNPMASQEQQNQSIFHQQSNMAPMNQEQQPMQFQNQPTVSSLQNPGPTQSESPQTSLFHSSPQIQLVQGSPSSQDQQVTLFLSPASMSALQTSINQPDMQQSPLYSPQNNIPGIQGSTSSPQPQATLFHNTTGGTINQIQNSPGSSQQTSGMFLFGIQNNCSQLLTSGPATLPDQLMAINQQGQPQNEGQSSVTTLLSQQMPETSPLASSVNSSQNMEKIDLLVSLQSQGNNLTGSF
Description: To investigate whether or not the derivative of the present invention could inhibit the transcriptional activity of NFAT5, NFAT5 reporter screening was performed. A plasmid vector was constructed by eliminating CMV promoter sequence from the backbone and inserting NFAT5 binding site sequence ([…]) instead. Raw264.7 cells transfected with the vector were cultured in 10% FBS-PRMI (supplemented with 500 μg/ml G418). The cells were distributed in a 96-well plate at the density of 3×10^3 cells/well, followed by further culture for one more day. The cells were treated with LPS at the concentration of 1 μg/ml for 48 hours. Then, the cells were fixed and the expression level of GFP was measured by HCS fluorescence image (Thermo, ArrayScan^VTI).

[1] = Cytotoxicity test (WST-8), NIH 3T3; format: cell-based; conditions: mouse, NIH 3T3 embryonic fibroblast cells; NIN3T3, 24 hours
Description: (§2) To investigate the cytotoxicity of the derivative of the present invention, 5 kinds of cell lines (VERO: African green monkey kidney cell line, HFL-1: human embryonic lung cell line, L929: NCTC clone 929, mouse fibroblast cell line, NIH 3T3: mouse embryonic fibroblast cell line, and CHO-K1: Chinese hamster ovary cell line) were distributed in a 96-well plate at the density of 1×10^4 cells/well, which were treated with the compound of the present invention for 24 hours. The water-soluble tetrazolium salt WST-8 was added thereto. The orange colored formazan dye degraded by dehydrogenase in the live cells was read, followed by nonlinear regression to determine 50% growth inhibition concentration.

[2] = Cytotoxicity test (WST-8), L929; format: cell-based; conditions: mouse, L929 fibroblast cells (NCTC clone 929); L929, 24 hours
Description: as §2

[3] = Cytotoxicity test (WST-8), CHO-K1; format: cell-based; conditions: Chinese hamster, CHO-K1 ovary cells; CHO-K1, 24 hours
Description: as §2

[4] = Cytotoxicity test (WST-8), HFL-1; format: cell-based; conditions: human, HFL-1 embryonic lung cells; HFL-1, 24 hours
Description: as §2

[5] = Cytotoxicity test (WST-8), VERO; format: cell-based; conditions: African green monkey, VERO kidney cells
Description: as §2

[6] = Conc. 0.16 μM, two values per substance
[7] = Conc. 0.16 μM, two values per substance, read-out: inhibition rate
[8] = Conc. 0.8 μM, two values per substance
[9] = Conc. 0.8 μM, two values per substance, read-out: inhibition rate
[10] = Conc. 4 μM, two values per substance
[11] = Conc. 4 μM, two values per substance, read-out: inhibition rate
[12] = Conc. 20 μM, two values per substance
[13] = Conc. 20 μM, two values per substance, read-out: inhibition rate
[14] = Conc. 100 μM, two values per substance
[15] = Conc. 100 μM, two values per substance, read-out: inhibition rate
[16] = 1 μM, Raw264.7, LPS 100 ng/ml, 24 hours
[17] = 10 μM, Raw264.7, LPS 100 ng/ml, 24 hours

SMILES: COc1ccc2c(Cc3ccccc3C)c3n(c(=O)c2c1OC)CCc1cc2c(cc1-3)OCO2 [Example 4, 9,10-dimethoxy-13-(2-methylbenzyl)-5,6-dihydro-[1,3]dioxolo[4,5-g]isoquinolino [3,2-a]isoquinoline-8(6H)-one]
inhibition at 1 µM (iNOS; [16]): 23.2%
inhibition at 10 µM (iNOS; [17]): 97.9%
Inhibition rate of NFAT5 transcription (%) (NFAT5; 1 μM): 7.4%
Inhibition rate of NFAT5 transcription (%) (NFAT5; 10 μM): 88.2%

SMILES: COc1ccc2c(Cc3ccccn3)c3n(c(=O)c2c1OC)CCc1cc2c(cc1-3)OCO2 [Example 6, 9,10-dimethoxy-13-(pyridine-2-ylmethyl)-5,6-dihydro-[1,3]dioxolo[4,5-g]isoquinolino [3,2-a]isoquinoline-8(6H)-one]
GI50 at 24 h [1]: > 100 µM
inhibition at 1 µM (iNOS; [16]): 7.2%
inhibition at 10 µM (iNOS; [17]): 115%
GI50 at 24 h [2]: > 100 µM
Inhibition rate of NFAT5 transcription (%) (NFAT5; 1 μM): 9.9%
Inhibition rate of NFAT5 transcription (%) (NFAT5; 10 μM): 67.9%
inhibiting NFAT5 activity (in words) (NFAT5): remarkably excellent in inhibiting NFAT5 activity
GI50 at 24 h [3]: > 100 µM
GI50 at 24 h [4]: > 100 µM
GI50 at 24 h [5]: > 100 µM

SMILES: COc1ccc2c(Cc3nc4ccccc4[nH]3)c3n(c(=O)c2c1OC)CCc1cc2c(cc1-3)OCO2 [Example 7, 13-((1H-benzo[d]imidazole-2-yl)methyl)-9,10-dimethoxy-5,6-dihydro-[1,3]dioxolo [4,5-g]isoquinolino[3,2-a]isoquinoline-8(6H)-one]
inhibition at 1 µM (iNOS; RAW264.7, 24 h): 13.4%
inhibition at 10 µM (iNOS; RAW264.7, 24 h): 100%
Inhibition rate of NFAT5 transcription (%) (NFAT5; 1 μM): 18.5%
Inhibition rate of NFAT5 transcription (%) (NFAT5; 10 μM): 28.2%

SMILES: CCOC(=O)c1c2n(c(=O)c3c(OC)c(OC)ccc13)CCc1cc3c(cc1-2)OCO3 [Example 10, ethyl9,10-dimethoxy-8-oxo-6,8-dihydro-5H-[1,3]dioxolo[4,5-g]isoquinolino[3,2-a]isoquinoline-13-carboxylate]
inhibition at 1 µM (iNOS; RAW264.7, 24 h): 53.9%
inhibition at 10 µM (iNOS; RAW264.7, 24 h): 99.2%
Inhibition rate of NFAT5 transcription (%) (NFAT5; 1 μM): −3.8%
Inhibition rate of NFAT5 transcription (%) (NFAT5; 10 μM): 53.7%
inhibiting NFAT5 activity (in words) (NFAT5): remarkably excellent in inhibiting NFAT5 activity

SMILES: COc1ccc2c(C(=O)O)c3n(c(=O)c2c1OC)CCc1cc2c(cc1-3)OCO2 [Example 11, 9,10-dimethoxy-8-oxo-6,8-dihydro-5H-[1,3]dioxolo[4,5-g]isoquinolino[3,2-a]isoquinoline-13-carboxylic acid]
inhibition at 1 µM (iNOS; [16]): -17.2%
inhibition at 10 µM (iNOS; [17]): 118%
Inhibition rate of NFAT5 transcription (%) (NFAT5; 1 μM): −10.4%
Inhibition rate of NFAT5 transcription (%) (NFAT5; 10 μM): −12.8%

Now from value to molecule, other results behind:

inhibition rate (COX1; [6]): 5.4
inhibition at 0.16 µM (COX1; [7]): 3.3%
inhibition rate (COX1; [8]): 13.4
inhibition at 0.8 µM (COX1; [9]): 12.4%
inhibition rate (COX1; [10]): 20.4
inhibition at 4 µM (COX1; [11]): 18.4%
inhibition rate (COX1; [12]): 31.4
inhibition at 20 µM (COX1; [13]): 24.4%
inhibition rate (COX1; [14]): 51.5
inhibition at 100 µM (COX1; [15]): 53.5%
IC50 (COX1; Table 4): 96.3 µM
inhibition at 0.032 µM (COX2; Conc. 0.032 μM, two values per substance, read-out: inhibition rate): 0%
inhibition rate (COX2; [6]): 7.9
inhibition at 0.16 µM (COX2; [7]): 8.8%
inhibition rate (COX2; [8]): 19.8
inhibition at 0.8 µM (COX2; [9]): 17.2%
inhibition rate (COX2; [10]): 29.9
inhibition at 4 µM (COX2; [11]): 28.2%
inhibition rate (COX2; [12]): 39.3
inhibition at 20 µM (COX2; [13]): 41%
inhibition rate (COX2; [14]): 53.7
inhibition at 100 µM (COX2; [15]): 50.3%
IC50 (COX2; Table 5): 58.4 µM
SMILES: COc1ccc2cc3[n+](cc2c1OC)CCc1cc2c(cc1-3)OCO2 [Berberine]

Inhibition rate of NFAT5 transcription (%) (NFAT5; 1 μM): 13.6%
Inhibition rate of NFAT5 transcription (%) (NFAT5; 10 μM): 24.4%
SMILES: COc1ccc2c(Cc3ccc(F)cc3F)c3n(c(=O)c2c1OC)CCc1cc2c(cc1-3)OCO2 [Example 2, 13-(2,4-difluorobenzyl)-9,10-dimethoxy-5H-[1,3]dioxolo[4,5-g]isoquinolino[3,2-a]isoquinoline-8(6H)-one]
inhibition at 1 µM (iNOS; [16]): 56.8%
inhibition at 10 µM (iNOS; [17]): 95.2%

Inhibition rate of NFAT5 transcription (%) (NFAT5; 1 μM): 24.2%
Inhibition rate of NFAT5 transcription (%) (NFAT5; 10 μM): 77.6%
SMILES: COc1ccccc1Cc1c2n(c(=O)c3c(OC)c(OC)ccc13)CCc1cc3c(cc1-2)OCO3 [Example 5, 9,10-dimethoxy-13-(2-methoxybenzyl)-5,6-dihydro-[1,3]dioxolo[4,5-g]isoquinolino [3,2-a]isoquinoline-8(6H)-one]
inhibition at 1 µM (iNOS; [16]): 29%
inhibition at 10 µM (iNOS; [17]): 98.3%

Inhibition rate of NFAT5 transcription (%) (NFAT5; 1 μM): 0.5%
Inhibition rate of NFAT5 transcription (%) (NFAT5; 10 μM): 16.4%
SMILES: COc1ccc2c(C(=O)c3ccccc3F)c3n(c(=O)c2c1OC)CCc1cc2c(cc1-3)OCO2 [Example 9, 13-(2-fluorobenzoyl)-9,10-dimethoxy-5H-[1,3]dioxolo[4,5-g]isoquinolino[3,2-a]isoquinoline-8(6H)-one]
inhibition at 1 µM (iNOS; [16]): 65.6%
inhibition at 10 µM (iNOS; [17]): 117%

Inhibition rate of NFAT5 transcription (%) (NFAT5; 1 μM): −2.9%
Inhibition rate of NFAT5 transcription (%) (NFAT5; 10 μM): −5.2%
SMILES: COc1ccc2c(C(N)=O)c3n(c(=O)c2c1OC)CCc1cc2c(cc1-3)OCO2 [Example 12, 9,10-dimethoxy-8-oxo-6,8-dihydro-5H-[1,3]dioxolo[4,5-g]isoquinolino[3,2-a]isoquinoline-13-carboxamide]
inhibition at 1 µM (iNOS; [16]): 35.4%
inhibition at 10 µM (iNOS; [17]): 107%

Inhibition rate of NFAT5 transcription (%) (NFAT5; 1 μM): −11.1%
Inhibition rate of NFAT5 transcription (%) (NFAT5; 10 μM): −29.9%
SMILES: COc1ccc2c(C(=O)Nc3ccccc3F)c3n(c(=O)c2c1OC)CCc1cc2c(cc1-3)OCO2 [Example 13, N-(2-fluorophenyl)-9,10-dimethoxy-8-oxo-6,8-dihydro-5H-[1,3]dioxolo[4,5-g]isoquinolino[3,2-a]isoquinoline-13-carboxamide]
inhibition at 1 µM (iNOS; [16]): 70.8%
inhibition at 10 µM (iNOS; [17]): 106%
